Measured values taken from patent US10626112B2, “Heterocyclic sulfonamide derivative and medicine comprising same” (EA PHARMA CO., LTD., priority 2014, dated 2020).

Target: human TRPA1 (Homo sapiens (Human), UniProt O75762)
Experiment: Measurement of TRPA1 antagonist activity (1): intracellular calcium increase
Assay type: cell-based
Conditions: 293T cells transfected with human TRPA1 expression plasmid; allylisothiocyanate 20 μM stimulation; intracellular calcium fluorescence; read-out: hTRPA1 IC50
In short: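 Calcium-flux readout of TRPA1 block: compound given 10 min before 20 μM (final) allylisothiocyanate, fluorescence tracked 5 min. Cells were 293T transiently expressing human TRPA1, dye-loaded 1 hr in HBSS, 20 mM HEPES, pH 7.2. Inhibition scaled between agonist-only and buffer-only responses; IC50 by sigmoid fitting.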

Chain of human TRPA1 (O75762 whole entry): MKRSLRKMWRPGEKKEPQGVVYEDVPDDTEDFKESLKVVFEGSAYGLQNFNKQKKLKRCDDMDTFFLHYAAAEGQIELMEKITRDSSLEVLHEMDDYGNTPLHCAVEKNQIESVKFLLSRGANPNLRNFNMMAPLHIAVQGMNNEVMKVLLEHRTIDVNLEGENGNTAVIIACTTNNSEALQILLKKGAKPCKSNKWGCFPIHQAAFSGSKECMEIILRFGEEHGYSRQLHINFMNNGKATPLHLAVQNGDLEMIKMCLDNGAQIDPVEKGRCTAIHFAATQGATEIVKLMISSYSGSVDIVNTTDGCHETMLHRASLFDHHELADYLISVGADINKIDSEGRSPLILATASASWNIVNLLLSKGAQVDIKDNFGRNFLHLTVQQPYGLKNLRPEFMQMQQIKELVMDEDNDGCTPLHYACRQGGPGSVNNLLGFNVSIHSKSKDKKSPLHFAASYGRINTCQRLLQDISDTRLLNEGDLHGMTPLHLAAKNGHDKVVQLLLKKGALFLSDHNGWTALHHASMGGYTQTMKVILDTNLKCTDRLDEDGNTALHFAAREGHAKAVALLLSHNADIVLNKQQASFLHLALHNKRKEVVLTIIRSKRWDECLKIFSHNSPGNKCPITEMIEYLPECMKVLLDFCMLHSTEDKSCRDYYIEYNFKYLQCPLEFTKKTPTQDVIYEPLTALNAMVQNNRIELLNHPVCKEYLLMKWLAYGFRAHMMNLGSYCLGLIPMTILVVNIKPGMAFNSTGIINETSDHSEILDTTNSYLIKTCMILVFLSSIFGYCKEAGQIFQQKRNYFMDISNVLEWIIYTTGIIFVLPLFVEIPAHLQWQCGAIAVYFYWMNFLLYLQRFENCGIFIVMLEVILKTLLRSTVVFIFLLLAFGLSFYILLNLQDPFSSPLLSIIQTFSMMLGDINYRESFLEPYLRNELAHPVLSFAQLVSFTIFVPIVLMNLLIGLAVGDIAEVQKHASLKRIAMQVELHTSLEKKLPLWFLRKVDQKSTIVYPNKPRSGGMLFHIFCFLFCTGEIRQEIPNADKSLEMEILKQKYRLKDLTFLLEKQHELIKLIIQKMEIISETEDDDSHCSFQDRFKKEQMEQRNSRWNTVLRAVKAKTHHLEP

SMILES | IC50 [nM]
C[C@H](NS(=O)(=O)c1cc2cc(F)ccc2o1)C(=O)NCc1cc(-c2ccc(C(F)(F)F)cc2)cnn1 [Example 250, (2S)-2-[(5-fluorobenzofuran-2-yl)sulfonylamino]-N-[[5-[4-(trifluoromethyl)phenyl]-pyridazin-3-yl]methyl]propanamide] | 72
C[C@H](NS(=O)(=O)c1cc2cc(F)ccc2o1)C(=O)NCc1cc(-c2ccc(C(F)(F)F)cn2)cnn1 [Example 251, (2S)-2-[(5-fluorobenzofuran-2-yl)sulfonylamino]-N-[[5-[5-(trifluoromethyl)-2-pyridyl]pyridazin-3-yl]methyl]propanamide] | 330
C[C@H](NS(=O)(=O)c1cc2cc(F)ccc2o1)C(=O)NCc1ccc(O)c(-c2ccc(C(F)(F)F)cn2)c1 [Example 252, (2S)-2-[(5-fluorobenzofuran-2-yl)sulfonylamino]-N-[[4-hydroxy-3-[5-(trifluoromethyl)-2-pyridyl]-phenyl]methyl]propanamide] | 14
C[C@H](NS(=O)(=O)c1cc2cc(F)ccc2o1)C(=O)NCc1ccc(O)c(-c2ncc(C(F)(F)F)cn2)c1 [Example 253, (2S)-2-[(5-fluorobenzofuran-2-yl)sulfonylamino]-N-[[4-hydroxy-3-[5-(trifluoromethyl)pyrimidin-2-yl]phenyl]methyl]propanamide] | 160
C[C@H](NS(=O)(=O)c1cc2cc(F)ccc2o1)C(=O)NCc1ccc(O)c(-c2cnc(C(F)(F)F)cn2)c1 [Example 254, (2S)-2-[(5-fluorobenzofuran-2-yl)sulfonylamino]-N-[[4-hydroxy-3-[5-(trifluoromethyl)pyrazin-2-yl]phenyl]methyl]propanamide] | 80
C[C@H](NS(=O)(=O)c1cc2cc(F)ccc2o1)C(=O)NCc1cc(-c2ccc(C(F)(F)F)cn2)c(O)cn1 [Example 255, (2S)-2-[(5-fluorobenzofuran-2-yl)sulfonylamino]-N-[[5-hydroxy-4-[5-(trifluoromethyl)-2-pyridyl]-2-pyridyl]methyl]propanamide] | 17
O=C(NCc1cc(-c2ccc(C(F)(F)F)cn2)ccn1)[C@@H]1C[C@@H](O)CN1S(=O)(=O)c1cc2cc(F)ccc2o1 [Example 256, (2S,4R)-1-(5-fluorobenzofuran-2-yl)sulfonyl-4-hydroxy-N-[[4-[5-(trifluoromethyl)-2-pyridyl]-2-pyridyl]methyl]pyrrolidine-2-carboxamide] | 91
O=C(NCc1cc(-c2ccc(C(F)(F)F)cn2)ccn1)[C@@H]1[C@H]2C[C@H]2CN1S(=O)(=O)c1cc2cc(F)ccc2o1 [Example 257, (1R,4S,5S)-3-(5-fluorobenzofuran-2-yl)sulfonyl-N-[[4-[5-(trifluoromethyl)-2-pyridyl]-2-pyridyl]methyl]-3-azabicyclo[3.1.0]hexane-4-carboxamide] | 64
O=C(NCc1cc(-c2ccc(C(F)(F)F)cn2)ccn1)[C@@H]1C[C@@H](c2ccccc2)CN1S(=O)(=O)c1cc2cc(F)ccc2o1 [Example 260, (2S,4S)-1-(5-fluorobenzofuran-2-yl)sulfonyl-4-phenyl-N-[[4-[5-(trifluoromethyl)-2-pyridyl]-2-pyridyl]methyl]pyrrolidine-2-carboxamide] | 51
O=C(NCc1cc(-c2ccc(C(F)(F)F)cn2)ccn1)[C@@H]1CCCCN1S(=O)(=O)c1cc2cc(F)ccc2o1 [Example 261, (2S)-1-(5-fluorobenzofuran-2-yl)sulfonyl-N-[[4-[5-(trifluoromethyl)-2-pyridyl]-2-pyridyl]methyl]piperidine-2-carboxamide] | 37
O=C(NCc1cc(-c2ccc(C(F)(F)F)cn2)ccn1)[C@@H]1CC=CCN1S(=O)(=O)c1cc2cc(F)ccc2o1 [Example 263, (2S)-1-(5-fluorobenzofuran-2-yl)sulfonyl-N-[[4-[5-(trifluoromethyl)-2-pyridyl]-2-pyridyl]methyl]-3,6-dihydro-2H-pyridine-2-carboxamide] | 21
O=C(NCc1cc(C(F)(F)F)ccc1Cl)[C@@H]1CCCN1S(=O)(=O)c1cc2cnccc2o1 [Example 266, (2S)-N-[[2-chloro-5-(trifluoromethyl)phenyl]methyl]-1-furo[3,2-c]pyridin-2-ylsulfonyl-pyrrolidine-2-carboxamide] | 38
O=C(NCc1ccc(Oc2cccc(C(F)(F)F)c2)cc1)[C@@H]1CCCN1S(=O)(=O)c1cc2cnccc2o1 [Example 268, (2S)-1-furo[3,2-c]pyridin-2-ylsulfonyl-N-[[4-[3-(trifluoromethyl)phenoxy]-phenyl]methyl]pyrrolidine-2-carboxamide] | 29
CC(C)(C)OC(=O)Nc1ccccc1-c1cc(CNC(=O)[C@@H]2CCCN2S(=O)(=O)c2cc3ccccc3o2)ccn1 [Example 276, N-[2-[4-[[[(2S)-1-(benzofuran-2-ylsulfonyl)pyrrolidine-2-carbonyl]amino]methyl]-2-pyridyl]phenyl]carbamic acid tert-butyl] | 150
O=C(NCc1ccnc(-c2cc(Cl)cs2)c1)[C@@H]1CCCN1S(=O)(=O)c1cc2ccccc2o1 [Example 277, (2S)-1-(benzofuran-2-ylsulfonyl)-N-[[2-(4-chloro-2-thienyl)-4-pyridyl]methyl]pyrrolidine-2-carboxamide] | 89
CSc1ccc(-c2cc(CNC(=O)[C@@H]3CCCN3S(=O)(=O)c3cc4ccccc4o3)ccn2)cc1 [Example 278, (2S)-1-(benzofuran-2-ylsulfonyl)-N-[[2-(4-methylsulfanylphenyl)-4-pyridyl]methyl]pyrrolidine-2-carboxamide] | 16

Stronger by IC50, values ahead:

IC50 [nM] | SMILES
1.9 | O=C(NCc1cc(-c2ccc(C(F)(F)F)cn2)ccn1)[C@@H]1C[C@H]2C[C@H]2N1S(=O)(=O)c1cc2cc(F)ccc2o1 [Example 258, (1R,3S,5R)-4-(5-fluorobenzofuran-2-yl)sulfonyl-N-[[4-[5-(trifluoromethyl)-2-pyridyl]-2-pyridyl]methyl]-4-azabicyclo[3.1.0]hexane-3-carboxamide]
1.2 | O=C(NCc1cc(-c2ccc(C(F)(F)F)cn2)ccn1)[C@@H]1C[C@@H]2C[C@@H]2N1S(=O)(=O)c1cc2cc(F)ccc2o1 [Example 259, (1S,3S,5S)-4-(5-fluorobenzofuran-2-yl)sulfonyl-N-[[4-[5-(trifluoromethyl)-2-pyridyl]-2-pyridyl]methyl]-4-azabicyclo[3.1.0]hexane-3-carboxamide]
2.3 | O=C(NCc1cc(-c2ccc(C(F)(F)F)cn2)ccn1)[C@@H]1[C@H]2CC[C@H](C2)N1S(=O)(=O)c1cc2cc(F)ccc2o1 [Example 262, (1S,2S,4R)-3-(5-fluorobenzofuran-2-yl)sulfonyl-N-[[4-[5-(trifluoromethyl)-2-pyridyl]-2-pyridyl]methyl]-3-azabicyclo[2.2.1]heptane-2-carboxamide]
12 | O=C(NCc1cc(-c2ccc(C(F)(F)F)cn2)ccn1)[C@@H]1CCCN1S(=O)(=O)c1cc2c(Cl)nccc2o1 [Example 265, (2S)-1-(4-chlorofuro[3,2-c]pyridin-2-yl)sulfonyl-N-[[4-[5-(trifluoromethyl)-2-pyridyl]-2-pyridyl]methyl]pyrrolidine-2-carboxamide]
6.4 | O=C(NCc1cccc(OCc2ccccc2)c1)[C@@H]1CCCN1S(=O)(=O)c1cc2cnccc2o1 [Example 267, (2S)-N-[(3-benzyloxyphenyl)methyl]-1-furo[3,2-c]pyridin-2-ylsulfonyl-pyrrolidine-2-carboxamide]
4.3 | O=C(NCc1cccc(Oc2ccc(C(F)(F)F)cc2)c1)[C@@H]1CCCN1S(=O)(=O)c1cc2cnccc2o1 [Example 269, (2S)-1-furo[3,2-c]pyridin-2-ylsulfonyl-N-[[3-[4-(trifluoromethyl)phenoxy]-phenyl]methyl]pyrrolidine-2-carboxamide]
3.8 | O=C(NCc1cc(-c2ccc(C(F)(F)F)cc2)ncn1)[C@@H]1CCCN1S(=O)(=O)c1cc2cnccc2o1 [Example 270, (2S)-1-furo[3,2-c]pyridin-2-ylsulfonyl-N-[[6-[4-(trifluoromethyl)phenyl]-pyrimidin-4-yl]methyl]pyrrolidine-2-carboxamide]
4.4 | O=C(NCc1ccnc(-c2ccc(C(F)(F)F)cc2O)c1)[C@@H]1CCCN1S(=O)(=O)c1cc2cnccc2o1 [Example 271, (2S)-1-furo[3,2-c]pyridin-2-ylsulfonyl-N-[[2-[2-hydroxy-4-(trifluoromethyl)phenyl]-4-pyridyl]methyl]pyrrolidine-2-carboxamide]
12 | O=C(NCc1cc(-c2ccc(C(F)(F)F)cn2)ccn1)[C@@H]1CCCN1S(=O)(=O)c1cc2cnccc2o1 [Example 272, (2S)-1-furo[3,2-c]pyridin-2-ylsulfonyl-N-[[4-[5-(trifluoromethyl)-2-pyridyl]-2-pyridyl]methyl]pyrrolidine-2-carboxamide]
1.6 | O=C(NCc1ccc(O)c(-c2ccc(C(F)(F)F)cn2)c1)[C@@H]1CCCN1S(=O)(=O)c1cc2cnccc2o1 [Example 273, (2S)-1-furo[3,2-c]pyridin-2-ylsulfonyl-N-[[4-hydroxy-3-[5-(trifluoromethyl)-2-pyridyl]phenyl]methyl]-pyrrolidine-2-carboxamide]
9.8 | O=C(NCc1cccc(OCc2ccnc(C(F)(F)F)c2)c1)[C@@H]1CCCN1S(=O)(=O)c1cc2cnccc2o1 [Example 274, (2S)-1-furo[3,2-c]pyridin-2-ylsulfonyl-N-[[3-[[2-(trifluoromethyl)-4-pyridyl]methoxy]phenyl]-methyl]pyrrolidine-2-carboxamide]
3.8 | C#CCN([C@@H](C)C(=O)NCc1ccnc(-c2ccc(C(F)(F)F)cc2O)c1)S(=O)(=O)c1cc2cc(F)ccc2o1 [Example 275, (2S)-2-[(5-fluorobenzofuran-2-yl)sulfonyl-2-propynylamino]-N-[[2-[2-hydroxy-4-(trifluoromethyl)phenyl]-4-pyridyl]methyl]propanamide]
2.8 | O=C(NCc1cncc(-c2ccc(OC(F)(F)F)cc2)c1)[C@@H]1CCCN1S(=O)(=O)c1cc2cc(F)ccc2o1 [Example 279, (2S)-1-(5-fluorobenzofuran-2-yl)sulfonyl-N-[[5-[4-(trifluoromethoxy)phenyl]-3-pyridyl]methyl]pyrrolidine-2-carboxamide]
